In PMC10709440, “High-throughput ligand profile characterization in novel cell lines expressing seven heterologous insect olfactory receptors for the detection of volatile plant biomarkers” (Scientific Reports, 2023):
Read-outs that look alike come from different tables or passages of the source.

Legend:
Drosophila OR13a = molecular target: T1, Drosophila OR13a (Drosophila melanogaster, UniProt Q9VXL0); assay: Calcium ion fluorescence (GCaMP6) assay, OR13a stable HEK293 cell line; format: cell-based; conditions: for OR13a response (VUAA1-normalized) at 1 μM / OR13a response (VUAA1-normalized) at 10 μM / OR13a response (VUAA1-normalized) at 100 μM: OR13a cell line
T1 construct: expressed in transfected cells
T1 sequence (Q9VXL0 1-418): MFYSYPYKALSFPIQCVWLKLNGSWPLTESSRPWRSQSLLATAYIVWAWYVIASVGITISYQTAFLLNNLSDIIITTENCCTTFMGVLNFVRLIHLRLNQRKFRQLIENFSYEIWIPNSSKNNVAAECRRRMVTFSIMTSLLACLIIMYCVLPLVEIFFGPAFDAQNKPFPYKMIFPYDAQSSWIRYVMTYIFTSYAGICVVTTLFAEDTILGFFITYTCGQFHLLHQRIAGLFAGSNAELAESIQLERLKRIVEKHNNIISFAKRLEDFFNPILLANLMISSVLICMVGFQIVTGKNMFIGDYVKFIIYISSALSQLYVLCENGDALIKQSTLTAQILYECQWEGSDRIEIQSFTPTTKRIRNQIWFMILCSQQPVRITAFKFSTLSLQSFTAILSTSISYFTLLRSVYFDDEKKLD
T1 sequence (Q9VNB5 1-486 partner): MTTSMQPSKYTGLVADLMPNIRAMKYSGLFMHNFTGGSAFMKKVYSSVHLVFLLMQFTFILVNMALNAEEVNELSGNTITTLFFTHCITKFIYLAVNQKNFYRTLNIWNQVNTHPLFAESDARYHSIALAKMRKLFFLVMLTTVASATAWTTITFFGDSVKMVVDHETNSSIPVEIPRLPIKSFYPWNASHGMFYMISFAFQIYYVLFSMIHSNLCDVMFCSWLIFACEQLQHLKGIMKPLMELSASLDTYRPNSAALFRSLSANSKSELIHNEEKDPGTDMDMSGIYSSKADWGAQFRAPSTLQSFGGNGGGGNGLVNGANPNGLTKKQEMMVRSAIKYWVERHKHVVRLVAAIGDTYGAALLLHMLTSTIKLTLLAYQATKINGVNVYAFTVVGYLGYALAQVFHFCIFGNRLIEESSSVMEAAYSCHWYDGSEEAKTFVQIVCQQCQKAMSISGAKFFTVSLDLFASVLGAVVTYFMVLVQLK
Outline: (§1)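 Responses are VUAA1-normalized ΔF: each VOC-evoked calcium signal, (FMAX−F0)/F0 over 30 s after injection, divided by the same line's mean 50 µM VUAA1 response. Cells were doxycycline-induced HEK293 with GCaMP6 and the cognate Drosophila OR, in HEPES buffer pH 7.3; ligands tested 0.01–100 μM.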

Drosophila OR71a = molecular target: T2, Drosophila OR71a (Drosophila melanogaster, UniProt Q9VUK5); assay: Calcium ion fluorescence (GCaMP6) assay, OR71a stable HEK293 cell line; format: cell-based; conditions: for OR71a Average response (VUAA1-normalized): 50 μM VUAA1 = 1; for OR71a response (VUAA1-normalized) at 1 μM / OR71a response (VUAA1-normalized) at 10 μM / OR71a response (VUAA1-normalized) at 100 μM / Average response: OR71a cell line; for Average response: VUAA1-normalized response, mean of biological replicates; for activation at 1 µM / activation at 10 µM / activation at 100 µM: HEK293, read-out: OR71a response (VUAA1-normalized response)
T2 construct: expressed in transfected cells
T2 sequence (Q9VUK5 1-378): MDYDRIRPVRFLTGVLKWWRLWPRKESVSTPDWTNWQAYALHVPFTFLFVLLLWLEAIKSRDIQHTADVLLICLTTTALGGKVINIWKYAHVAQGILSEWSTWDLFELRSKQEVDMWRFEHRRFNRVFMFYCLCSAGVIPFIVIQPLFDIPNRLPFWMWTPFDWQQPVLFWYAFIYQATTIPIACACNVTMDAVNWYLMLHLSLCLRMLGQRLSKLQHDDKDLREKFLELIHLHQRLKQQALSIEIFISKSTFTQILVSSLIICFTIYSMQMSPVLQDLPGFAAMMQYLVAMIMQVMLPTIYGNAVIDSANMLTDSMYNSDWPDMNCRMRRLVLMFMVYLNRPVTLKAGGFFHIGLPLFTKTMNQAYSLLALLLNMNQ
T2 sequence (Q9VNB5 1-486 partner): T1 sequence (Q9VNB5 1-486 partner)
Outline: as §1

[1] = HEK293, read-out: OR13a Average response (VUAA1-normalized), 1 μM VOC, 50 μM VUAA1 = 1, responses not exceeding 0.05 considered 0
[2] = HEK293, read-out: OR13a Average response (VUAA1-normalized), 10 μM VOC, 50 μM VUAA1 = 1, responses not exceeding 0.05 considered 0
[3] = HEK293, read-out: OR13a Average response (VUAA1-normalized), 100 μM VOC, 50 μM VUAA1 = 1, responses not exceeding 0.05 considered 0
[4] = ligand concentration 1 (unit not given), threshold 0.05, below shown as 0
[5] = ligand concentration 10 (unit not given), threshold 0.05, below shown as 0
[6] = ligand concentration 100 (unit not given), threshold 0.05, below shown as 0
[7] = HEK293, read-out: OR13a response (VUAA1-normalized response), VOC concentration 1 μM
[8] = HEK293, read-out: OR13a response (VUAA1-normalized response), VOC concentration 10 μM
[9] = HEK293, read-out: OR13a response (VUAA1-normalized response), VOC concentration 100 μM
[10] = concentration 1, normalized fluorescence change, values below 0.05 threshold given as 0
[11] = concentration 10, normalized fluorescence change, values below 0.05 threshold given as 0
[12] = concentration 100, normalized fluorescence change, values below 0.05 threshold given as 0
[13] = 1 μM VOC, 50 μM VUAA1 = 1, responses not exceeding 0.05 considered 0
[14] = 10 μM VOC, 50 μM VUAA1 = 1, responses not exceeding 0.05 considered 0
[15] = 100 μM VOC, 50 μM VUAA1 = 1, responses not exceeding 0.05 considered 0

| Structure (SMILES) | activation at 1 µM (Drosophila OR13a; [1]) | activation at 10 µM (Drosophila OR13a; [2]) | activation at 100 µM (Drosophila OR13a; [3]) | DF norm AVERAGE OR13a (Drosophila OR13a; [4]) | DF norm AVERAGE OR13a (Drosophila OR13a; [5]) | Average response (Drosophila OR71a; cc. 1 µM) | Average response (Drosophila OR71a; cc. 10 µM) | Average response (Drosophila OR71a; cc. 100 µM) | activation at 1 µM (Drosophila OR13a; [7]) | activation at 10 µM (Drosophila OR13a; [8]) | activation at 100 µM (Drosophila OR13a; [9]) | DF norm AVERAGE OR13a (Drosophila OR13a; [10]) | DF norm AVERAGE OR13a (Drosophila OR13a; [11]) | DF norm AVERAGE OR13a (Drosophila OR13a; [12]) | activation at 1 µM (Drosophila OR71a) | activation at 10 µM (Drosophila OR71a) | activation at 100 µM (Drosophila OR71a) | DF norm AVERAGE OR71a (Drosophila OR71a; [10]) | DF norm AVERAGE OR71a (Drosophila OR71a; [11]) | DF norm AVERAGE OR71a (Drosophila OR71a; [12]) | other results |
| --- | --- | --- | --- | --- | --- | --- | --- | --- | --- | --- | --- | --- | --- | --- | --- | --- | --- | --- | --- | --- | --- |
| COC(=O)c1ccccc1O [methyl salicylate] | 0% | 1% | 21% | 0 | 0 | 0.00 | 0.0108 | 0.12 |  |  |  |  |  |  |  |  |  |  |  |  | OR13a response (VUAA1-normalized) at 1 μM (Drosophila OR13a; VOC concentration 1 μM): 0.00; OR13a response (VUAA1-normalized) at 10 μM (Drosophila OR13a; VOC concentration 10 μM): 0.00; OR13a response (VUAA1-normalized) at 100 μM (Drosophila OR13a; VOC concentration 100 μM): 0.21; DF norm AVERAGE OR13a (Drosophila OR13a; [6]): 0.213; OR71a Average response (VUAA1-normalized) (Drosophila OR71a; 1 μM VOC): 0.00; OR71a Average response (VUAA1-normalized) (Drosophila OR71a; 10 μM VOC): 0.01; OR71a Average response (VUAA1-normalized) (Drosophila OR71a; 100 μM VOC): 0.12; OR71a response (VUAA1-normalized) at 1 μM (Drosophila OR71a; VOC concentration 1 μM): 0.00; OR71a response (VUAA1-normalized) at 10 μM (Drosophila OR71a; VOC concentration 10 μM): 0.00; OR71a response (VUAA1-normalized) at 100 μM (Drosophila OR71a; VOC concentration 100 μM): 0.12; DF norm AVERAGE OR71a (Drosophila OR71a; [4]): 0; DF norm AVERAGE OR71a (Drosophila OR71a; [5]): 0; DF norm AVERAGE OR71a (Drosophila OR71a; [6]): 0.1155 |
| CCCCCC(=O)CC [3-octanone] | 0% | 0% | 2.55% |  |  | 0.00 | 0.00 | 0.00 | 0% | 0% | 0% | 0 | 0 | 0 | 0% | 0% | 0% | 0 | 0 | 0 |  |
| C=C(C)[C@H]1CC=C(C)CC1 [(R)-(+)-limonene] |  |  |  |  |  | 0.0368 | 0.00 | 0.00 |  |  |  | 0 | 0 | 0 |  |  |  | 0 | 0 | 0 | OR13a Average response (VUAA1-normalized) (Drosophila OR13a; [13]): 0.00; OR13a Average response (VUAA1-normalized) (Drosophila OR13a; [14]): 0.0429; OR13a Average response (VUAA1-normalized) (Drosophila OR13a; [15]): 0.0285; OR13a response (VUAA1-normalized response) (Drosophila OR13a; VOC concentration 1 μM): 0.00; OR13a response (VUAA1-normalized response) (Drosophila OR13a; VOC concentration 10 μM): 0.00; OR13a response (VUAA1-normalized response) (Drosophila OR13a; VOC concentration 100 μM): 0.00; OR71a response (VUAA1-normalized response) (Drosophila OR71a; VOC concentration 1 μM): 0.00; OR71a response (VUAA1-normalized response) (Drosophila OR71a; VOC concentration 10 μM): 0.00; OR71a response (VUAA1-normalized response) (Drosophila OR71a; VOC concentration 100 μM): 0.00 |
| COC(=O)c1ccccc1 [methyl benzoate] | 0% | 0% | 6% | 0 | 0 | 0.00 | 0.00 | 0.0121 |  |  |  |  |  |  |  |  |  |  |  |  | OR13a response (VUAA1-normalized) at 1 μM (Drosophila OR13a; VOC concentration 1 μM): 0.00; OR13a response (VUAA1-normalized) at 10 μM (Drosophila OR13a; VOC concentration 10 μM): 0.00; OR13a response (VUAA1-normalized) at 100 μM (Drosophila OR13a; VOC concentration 100 μM): 0.06; DF norm AVERAGE OR13a (Drosophila OR13a; [6]): 0.06097; OR71a response (VUAA1-normalized) at 1 μM (Drosophila OR71a; VOC concentration 1 μM): 0.00; OR71a response (VUAA1-normalized) at 10 μM (Drosophila OR71a; VOC concentration 10 μM): 0.00; OR71a response (VUAA1-normalized) at 100 μM (Drosophila OR71a; VOC concentration 100 μM): 0.00; DF norm AVERAGE OR71a (Drosophila OR71a; [4]): 0; DF norm AVERAGE OR71a (Drosophila OR71a; [5]): 0; DF norm AVERAGE OR71a (Drosophila OR71a; [6]): 0 |
| CC(=O)OCC(C)C [isobutyl acetate] | 2% | 7% | 3.7% | 0 | 0.06695 | 0.038 | 0.0316 | 0.00 | 0% | 7% | 0% |  |  |  | 0% | 0% | 0% |  |  |  | DF norm AVERAGE OR13a (Drosophila OR13a; [6]): 0; DF norm AVERAGE OR71a (Drosophila OR71a; [4]): 0; DF norm AVERAGE OR71a (Drosophila OR71a; [5]): 0; DF norm AVERAGE OR71a (Drosophila OR71a; [6]): 0 |
| CC1=CCC[C@@]2(C)[C@@H]3CC[C@]12CC3(C)C [(−)-α-neoclovene] |  |  |  |  |  | 0.00 | 0.00 | 0.0221 |  |  |  | 0 | 0 | 0 |  |  |  | 0 | 0 | 0 | OR13a Average response (VUAA1-normalized) (Drosophila OR13a; [13]): 0.0436; OR13a Average response (VUAA1-normalized) (Drosophila OR13a; [14]): 0.00; OR13a Average response (VUAA1-normalized) (Drosophila OR13a; [15]): 0.00; OR13a response (VUAA1-normalized response) (Drosophila OR13a; VOC concentration 1 μM): 0.00; OR13a response (VUAA1-normalized response) (Drosophila OR13a; VOC concentration 10 μM): 0.00; OR13a response (VUAA1-normalized response) (Drosophila OR13a; VOC concentration 100 μM): 0.00; OR71a response (VUAA1-normalized response) (Drosophila OR71a; VOC concentration 1 μM): 0.00; OR71a response (VUAA1-normalized response) (Drosophila OR71a; VOC concentration 10 μM): 0.00; OR71a response (VUAA1-normalized response) (Drosophila OR71a; VOC concentration 100 μM): 0.00 |
| C=C1CC/C=C(\C)CC[C@@H]2[C@@H]1CC2(C)C [(-)-trans-caryophyllene] | 0% | 11% | 10% |  |  | 0.0273 | 0.00 | 0.00 | 0% | 11% | 10% | 0 | 0.1145 | 0.105 | 0% | 0% | 0% | 0 | 0 | 0 |  |
| COc1cccc(OC)c1 [1,3-dimethoxy benzene] | 0% | 0% | 3.71% |  |  | 0.00 | 0.04 | 0.00 | 0% | 0% | 0% | 0 | 0 | 0 | 0% | 0% | 0% | 0 | 0 | 0 |  |
